Reference: ChEMBL document CHEMBL1201862, “PubChem BioAssay data set” (2004)
Calls of active or inactive are those of the source.

Legend:
[1] = molecular target: Luciferin 4-monooxygenase (Photinus pyralis, UniProt P08659); assay: inhibition of purified Photinus pyralis luciferase – biochemical, luminescence, dose response (AID 1891)
[2] = Luminescence Cell-Based Dose Confirmation HTS to Identify Inhibitors of Platelet Dense Granule Release. [Related pubchem assays: 1663 (Primary HTS), 1678 (Summary of Project)]; assay type: functional
[3] = PAR1 agonist-induced platelet activation inhibition – cell-based, fluorescence, flow cytometry, human platelets, dose response (AID 2511); assay type: functional
[4] = SFLLRN-induced P-Selectin Platelet Surface Expression Measured in Cell-Based System Using Flow Cytometry - 2016-03_Inhibitor_Dose_DryPowder_Activity_Set3. [Related pubchem assays (depositor defined):AID1678]; assay type: functional
[5] = blockers of SFLLRN-triggered platelet ATP secretion – cell-based, human platelets, luminescence, dry powder, dose response (AID 493100); assay type: functional
[6] = Luminescence Cell-Based Dose Response Follow up to Identify Inhibitors of Platelet Dense Granule Release. [Related pubchem assays (depositor defined):AID1663, AID1678, AID1889, AID2519]; assay type: functional
[7] = molecular target: T1, Tyrosine-protein phosphatase non-receptor type 7 (Homo sapiens, UniProt P35236); assay type: functional
T1 sequence (P35236 whole entry): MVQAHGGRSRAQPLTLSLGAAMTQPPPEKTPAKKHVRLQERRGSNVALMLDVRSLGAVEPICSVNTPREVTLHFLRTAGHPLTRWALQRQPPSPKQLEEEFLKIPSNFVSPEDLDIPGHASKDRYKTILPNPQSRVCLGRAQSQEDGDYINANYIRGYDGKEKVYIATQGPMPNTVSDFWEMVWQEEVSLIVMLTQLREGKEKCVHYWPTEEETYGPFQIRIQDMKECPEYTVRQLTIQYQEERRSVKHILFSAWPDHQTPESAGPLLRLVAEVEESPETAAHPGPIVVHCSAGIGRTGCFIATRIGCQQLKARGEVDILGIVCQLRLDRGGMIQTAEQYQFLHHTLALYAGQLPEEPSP

[8] = molecular target: T2, RNA-binding protein pos-1 (Caenorhabditis elegans, UniProt G5EF15); assay: disruptors of C. elegans POS-1 RNA interaction – biochemical, fluorescence polarization, dose response (AID 1964);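 further: purified POS-1 fused to maltose binding protein made in E. coli; potency of compounds blocking POS-1 binding to fluorescent RNA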
T2 sequence (G5EF15 whole entry): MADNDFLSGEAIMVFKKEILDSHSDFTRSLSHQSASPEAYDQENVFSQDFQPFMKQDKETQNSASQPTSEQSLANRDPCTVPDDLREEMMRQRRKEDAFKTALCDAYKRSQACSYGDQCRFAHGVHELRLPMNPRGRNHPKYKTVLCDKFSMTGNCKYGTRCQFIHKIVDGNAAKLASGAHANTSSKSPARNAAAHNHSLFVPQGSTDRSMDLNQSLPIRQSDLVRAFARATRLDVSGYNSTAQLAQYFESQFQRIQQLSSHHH

[9] = molecular target: Glyceraldehyde-3-phosphate dehydrogenase (Homo sapiens, UniProt P04406)
Chain of Glyceraldehyde-3-phosphate dehydrogenase (P04406 whole entry): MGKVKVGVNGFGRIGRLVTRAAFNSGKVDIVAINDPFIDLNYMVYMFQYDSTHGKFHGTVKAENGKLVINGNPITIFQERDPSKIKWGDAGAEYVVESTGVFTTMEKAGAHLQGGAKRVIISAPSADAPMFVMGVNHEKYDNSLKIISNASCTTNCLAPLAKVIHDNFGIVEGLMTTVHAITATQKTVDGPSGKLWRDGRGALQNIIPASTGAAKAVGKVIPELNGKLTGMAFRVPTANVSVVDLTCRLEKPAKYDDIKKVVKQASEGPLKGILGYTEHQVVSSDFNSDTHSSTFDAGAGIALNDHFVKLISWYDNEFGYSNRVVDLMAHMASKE

[10] = molecular target: T3, Zinc finger protein mex-5 (Caenorhabditis elegans, UniProt Q9XUB2); assay: potency of MEX-5 RNA-binding blockers – biochemical, C. elegans, fluorescence polarization, dose response (AID 1960)
T3 sequence (Q9XUB2 whole entry): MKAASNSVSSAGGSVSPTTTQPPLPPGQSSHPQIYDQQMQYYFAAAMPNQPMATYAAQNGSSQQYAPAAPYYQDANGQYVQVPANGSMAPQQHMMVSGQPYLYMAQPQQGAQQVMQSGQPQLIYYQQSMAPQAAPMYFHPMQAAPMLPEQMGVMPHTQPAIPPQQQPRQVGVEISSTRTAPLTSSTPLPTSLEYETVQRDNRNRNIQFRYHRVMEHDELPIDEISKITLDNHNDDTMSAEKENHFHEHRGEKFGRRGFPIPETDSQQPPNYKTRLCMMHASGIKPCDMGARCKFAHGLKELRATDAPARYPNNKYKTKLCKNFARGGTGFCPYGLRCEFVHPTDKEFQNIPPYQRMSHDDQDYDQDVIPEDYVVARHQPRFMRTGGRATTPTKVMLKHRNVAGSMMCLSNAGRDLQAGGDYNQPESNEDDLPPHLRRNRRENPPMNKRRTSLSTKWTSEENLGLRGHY

[11] = molecular target: Heat shock cognate 71 kDa protein (Homo sapiens, UniProt P11142); assay: In Vitro Hsc70 Dose Response Fluorescence Polarization Assay. [Related pubchem assays: 1072 ]
Chain of Heat shock cognate 71 kDa protein (P11142 whole entry): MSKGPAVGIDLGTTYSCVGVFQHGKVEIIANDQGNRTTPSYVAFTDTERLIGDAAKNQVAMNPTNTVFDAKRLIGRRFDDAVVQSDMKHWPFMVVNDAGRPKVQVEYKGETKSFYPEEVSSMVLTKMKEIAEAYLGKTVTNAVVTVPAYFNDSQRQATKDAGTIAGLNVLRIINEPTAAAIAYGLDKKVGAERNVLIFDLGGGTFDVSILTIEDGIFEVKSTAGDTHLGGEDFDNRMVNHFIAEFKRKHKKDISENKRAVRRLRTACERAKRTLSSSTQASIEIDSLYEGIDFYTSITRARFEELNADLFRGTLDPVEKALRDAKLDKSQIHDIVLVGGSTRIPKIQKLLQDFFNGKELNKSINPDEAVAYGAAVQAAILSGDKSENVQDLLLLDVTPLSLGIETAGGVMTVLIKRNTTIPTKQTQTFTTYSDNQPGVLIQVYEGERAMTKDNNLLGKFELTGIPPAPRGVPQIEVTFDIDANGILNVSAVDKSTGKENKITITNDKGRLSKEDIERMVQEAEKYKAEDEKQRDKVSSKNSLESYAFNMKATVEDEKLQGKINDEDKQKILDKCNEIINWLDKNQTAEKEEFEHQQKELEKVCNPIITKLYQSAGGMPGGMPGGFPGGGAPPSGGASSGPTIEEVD

[12] = molecular target: Heat shock 70 kDa protein 1A (Homo sapiens, UniProt P0DMV8); assay: inhibition of Hsp70 binding activity – biochemical, fluorescence polarization, SAR follow-up (AID 1072)
Chain of Heat shock 70 kDa protein 1A (P0DMV8 whole entry): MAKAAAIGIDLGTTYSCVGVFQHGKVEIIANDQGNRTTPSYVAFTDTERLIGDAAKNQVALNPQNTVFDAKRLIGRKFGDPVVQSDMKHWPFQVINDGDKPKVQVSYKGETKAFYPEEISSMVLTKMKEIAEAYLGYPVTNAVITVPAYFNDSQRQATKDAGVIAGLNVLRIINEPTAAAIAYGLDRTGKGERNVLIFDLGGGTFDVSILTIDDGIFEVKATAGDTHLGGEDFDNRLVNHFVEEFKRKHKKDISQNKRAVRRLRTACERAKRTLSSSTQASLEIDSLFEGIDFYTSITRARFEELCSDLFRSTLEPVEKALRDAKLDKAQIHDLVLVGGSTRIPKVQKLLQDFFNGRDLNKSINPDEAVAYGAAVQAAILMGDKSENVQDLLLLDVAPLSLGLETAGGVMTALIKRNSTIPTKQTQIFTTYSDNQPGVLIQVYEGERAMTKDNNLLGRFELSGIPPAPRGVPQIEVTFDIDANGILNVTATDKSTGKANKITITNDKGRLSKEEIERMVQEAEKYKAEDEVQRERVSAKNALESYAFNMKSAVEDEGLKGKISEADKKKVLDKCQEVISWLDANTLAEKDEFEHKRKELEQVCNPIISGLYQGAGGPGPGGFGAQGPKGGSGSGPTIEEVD

[13] = molecular target: T4, Dual specificity protein phosphatase 6 (Rattus norvegicus, UniProt Q64346)
T4 sequence (Q64346 whole entry): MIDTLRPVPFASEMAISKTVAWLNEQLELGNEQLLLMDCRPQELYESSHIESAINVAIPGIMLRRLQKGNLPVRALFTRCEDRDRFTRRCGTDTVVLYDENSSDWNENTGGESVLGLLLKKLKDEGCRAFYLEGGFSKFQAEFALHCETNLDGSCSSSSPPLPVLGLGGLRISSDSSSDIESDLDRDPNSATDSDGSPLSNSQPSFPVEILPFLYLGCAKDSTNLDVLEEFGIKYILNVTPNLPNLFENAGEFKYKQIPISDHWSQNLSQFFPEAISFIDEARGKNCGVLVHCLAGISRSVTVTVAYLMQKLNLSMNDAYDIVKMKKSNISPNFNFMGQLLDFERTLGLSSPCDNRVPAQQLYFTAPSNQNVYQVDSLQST

[14] = molecular target: T4, Dual specificity protein phosphatase 6; assay type: functional
Escherichia coli = assay: microbe, parasite or virus in culture
[15] = luciferase reporter signal suppression in cells – H4 neuroglioma cells, luminescence, dose response (AID 1990); assay type: functional, cell-based
[16] = Luminescence Cell-Based Dose Response HTS to Identify Inhibitors of 5'UTR Stem-Loop Driven Prion Protein mRNA Translation in H4 Neuroglioblastoma Cells. [Related pubchem assays: 1827 (Project Summary), 1813 (Primary HTS)]; assay type: functional
[17] = alpha-synuclein stem-loop luciferase translation blockers – H4 neuroglioma cells, luminescence, confirmation (AID 1988); assay type: functional, cell-based
[18] = Luminescence Cell-Based Dose Retest to Confirm Inhibitors of Cancer Stem Cells. [Related pubchem assays (depositor defined):AID2717, AID2721]; assay type: functional; details: Homo sapiens
[19] = molecular target: T5, Microphthalmia-associated transcription factor (Homo sapiens, UniProt O75030); assay: reducers of TRPM1 reporter luminescence, concentration series – cell-based, SK-MEL-5, cherry-picked, set 3, MITF inhibitor project, dose response (AID 493073); assay type: functional;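 further: SK-MEL-5 melanoma cells with luciferase driven by the MITF target TRPM1 promoter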
T5 sequence (O75030 whole entry): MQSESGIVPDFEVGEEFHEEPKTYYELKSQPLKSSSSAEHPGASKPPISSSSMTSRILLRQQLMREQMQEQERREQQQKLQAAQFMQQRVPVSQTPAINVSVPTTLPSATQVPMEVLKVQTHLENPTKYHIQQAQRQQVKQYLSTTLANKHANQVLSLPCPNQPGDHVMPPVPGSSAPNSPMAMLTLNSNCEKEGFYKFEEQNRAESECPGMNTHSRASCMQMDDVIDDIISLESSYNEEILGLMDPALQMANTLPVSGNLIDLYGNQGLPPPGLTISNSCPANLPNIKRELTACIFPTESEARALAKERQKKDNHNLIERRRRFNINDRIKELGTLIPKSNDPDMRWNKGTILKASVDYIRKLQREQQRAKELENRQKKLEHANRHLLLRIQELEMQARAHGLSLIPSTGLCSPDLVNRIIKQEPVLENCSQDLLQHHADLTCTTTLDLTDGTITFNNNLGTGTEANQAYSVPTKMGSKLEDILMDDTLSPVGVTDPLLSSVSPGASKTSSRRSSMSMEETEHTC

A-375 = assay: MITF: Counter assay: A375 proliferation Measured in Cell-Based System Using Plate Reader - 2084-03_Inhibitor_Dose_DryPowder_Activity. [Related pubchem assays (depositor defined):AID488944]; assay type: functional; details: Homo sapiens

Chain of Luciferin 4-monooxygenase (P08659 whole entry): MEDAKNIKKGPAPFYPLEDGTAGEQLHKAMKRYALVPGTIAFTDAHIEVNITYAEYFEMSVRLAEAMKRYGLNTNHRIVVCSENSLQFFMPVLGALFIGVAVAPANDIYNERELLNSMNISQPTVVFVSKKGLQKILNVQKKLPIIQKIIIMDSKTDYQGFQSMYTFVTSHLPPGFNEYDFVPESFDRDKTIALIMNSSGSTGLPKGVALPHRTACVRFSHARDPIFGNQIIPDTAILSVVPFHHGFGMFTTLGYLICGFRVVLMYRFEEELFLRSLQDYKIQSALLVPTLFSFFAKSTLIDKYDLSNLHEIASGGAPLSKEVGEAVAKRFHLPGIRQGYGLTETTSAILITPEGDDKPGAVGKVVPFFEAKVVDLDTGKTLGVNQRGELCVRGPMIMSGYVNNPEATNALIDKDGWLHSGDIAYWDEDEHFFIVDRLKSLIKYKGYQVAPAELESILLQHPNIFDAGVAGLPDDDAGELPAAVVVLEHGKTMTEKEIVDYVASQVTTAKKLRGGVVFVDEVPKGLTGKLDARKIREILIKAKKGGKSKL

In the case of `CCCC(=O)Nc1cccc(NC(=O)c2ccccc2Br)c1`, the EC50 [1] is reported as > 112 µM (not active), the EC50 [2] is reported as 1.87 µM (active) and the EC50 [3] is reported as < 0.3 µM (active). For the same compound, the AC50 [4] was < 0.156 µM (active), the AC50 [5] was 11.2 µM (active) and the EC50 [6] was 4.87 µM (active).

For `O=C(O)C1Nc2c(cccc2C(F)(F)F)C2C=CCC12` (stereo unspecified), the IC50 [7] was 5.06 µM (active), the EC50 [8] was 26.7 µM (active) and the IC50 [9] was > 100 µM (not active). For the same compound, the EC50 [10] was 17.7 µM (active), the IC50 [11] was 20.2 µM (active) and the IC50 [12] was 8.36 µM (active). The IC50 [13] was 9.2 µM (active) and the IC50 [14] was 7.72 µM (active).

For `CCCCOC(=O)C1=C(C)NC(=O)NC1c1ccc2c(c1)OCO2` (stereo unspecified), the AC50 (Escherichia coli) was 23.6 µM (active).

With `CC(=O)Nc1sc(C)c(C)c1C(=O)OCC(=O)N(CC(C)C)c1c(N)n(Cc2ccccc2)c(=O)[nH]c1=O` the EC50 [15] was 10.2 µM (active), the EC50 [16] was 9.81 µM (active) and the EC50 [17] was 3.96 µM (active). For the same compound, the AC50 [18] was 1.64 µM (active), the AC50 [19] was 5.29 µM (active) and the AC50 (A-375) was 7.68 µM (active).
